Legend:
[1] = system: Id3, Id2, Eomes and Prdm1; assay: Real-time RT-PCR analysis of Ezh2-targeted genes in cultured Pmel-1 cells; format: cell-based, mouse; conditions: WT Pmel-1 cells, anti-CD3/CD28 Ab+IL-2, inhibitor treatment for 7 days
Protocol: Splenic and LN CD44loCD8+ TN cells were prepared as previously described (Zhang et al., 2002, J Immunol, 169:7111-7118; Zhang et al., 2005, Nat Med, 11:1299-1305). The purity was usually 90-95%. CD8+ T cell cultures were set up as previously described (He et al., 2013, Blood, 122:4119-4128; Tong et al., 2014, J Immunol, 192:5012-5022). In brief, CD44loCD8+ naive T cells (were cultured in the presence of anti-CD3 (2 μg/ml) and anti-CD28 (2.0 μg/ml) Abs together with recombinant human IL-2 (10 ng/ml; R&D Systems). In vivo sorted T cells and cultured T cells were restimulated with anti-CD3 Ab (1 μg/ml; BioLegend) or human gp100 (10^−6 M) for 5 hours before intracellular staining. Bone marrow-derived dendritic cells (DCs) were generated as previously described (Zhang et al., 2005, Nat Med, 11:1299-1305). For TAT-Cre experiments, 10^6 purified CD8^+ T cells or splenocytes were incubated in 100 μL serum-free RPMI containing 90 to 100 μg/mL TAT-Cre fusion protein for 16 hours at 37° C. After extensive washing, treated cells were kept in vitro culture for another 5 days.
The MigR1 retroviral vector system was described previously (Tong et al., 2014, J Immunol, 192:5012-5022; Pear et al., 1998, Blood, 92:3780-3792). Ezh2, Ezh2 mutants, and Id3 cDNA was cloned into Mig-R1 (GFP) vector. For retroviral infection, CD8+ T cells were prestimulated with anti-CD3/CD28 Ab for 24 hours, and then the retrovirus supernatant was added in the presence of 8 μg/ml polybrene (Sigma). Cells were spinoculated at 3000 rpm, 32° C. for 3 hours. The same retroviral infection procedure was repeated 24 hours later (Tong et al., 2014, J Immunol, 192:5012-5022).
RNA was isolated with an RNeasy Mini kit (Qiagen) and cDNA was generated by reverse transcription (Applied Biosystems). Real-time RT-PCR was performed with a SYBR green PCR mix (ABI Biosystems) in the Realplex Eppendorf Real-time PCR instrument (Eppendorf AG). Gene expression levels were calculated relative to the 18s gene. Data were collected and quantitatively analyzed on a Realplex sequence detection system (Eppendorf AG), and Applied Biosystems StepOne Plus Real-time PCR systems (Applied Biosystems).

pEzh2S21 and H3K27me3 = assay: Immunoblot analysis of TCR-activated Pmel-1 CD8+ T cells; format: cell-based, mouse; conditions: proliferating Pmel-1 CD8+ T cells stimulated in vitro for 7 days, with or without MK2206
[2] = system: promoter regions of Id3, Id2, Eomes and Prdm1 loci; assay: ChIP analysis of Ezh2 and H3K27me3 deposition in cultured Pmel-1 cells; format: cell-based, mouse; conditions: Akt inhibition
Protocol: A Millipore ChIP kit and Diagenode ChIP kit was used for ChIP assay as described by the manufacturer. DNA-protein complexes were crosslinked with formaldehyde at a final concentration of 1%. Sonicated extracts were precleared and incubated with Abs specific to Ezh2, H3K27me3, or nonspecific anti-IgG. The immunoprecipitated DNA was quantified by real-time quantitative PCR.

B16 melanoma = assay: Adoptive transfer of Pmel-1 cells into B6 mice with pre-established B16 melanoma, tumor size over time; format: in vivo, mouse; conditions: Pmel-1 cells treated during ex vivo culture, transferred into B16 melanoma-bearing B6 mice
Protocol: Pmel-1 T cells (1×10^4 to 1×10^6) were transferred into sublethally irradiated B6 mice (5.0 Gy). IL-2 (100,000 IU) was administered intraperitoneally twice a day, and BM-derived DCs which have been pulsed with gp100 (10 μg) were transferred via tail vein, for constitutively three days after adoptive transfer. C57BL/6 mice were injected subcutaneously with 5×10^5 B16 melanoma cells. In some experiments, Ezh2^fl/fl mice were intravenously received VVA-gp100 or VVA-OVA.
The Abs used for flow cytometric analyses were purchased from eBioscience, BioLegend, or BD Biosciences. Flow cytometric analyses were performed with FACS LSRII (BD Biosciences) as described (Zhang et al., 2005, Nat Med, 11:1299-1305; Zhang et al., 2002, J Immunol, 169:7111-7118). B16 mouse melanoma cell line was from American Type Culture Collection.

Which results are given for `Oc1cccc(-c2nc(N3CCOCC3)c3oc4ncccc4c3n2)c1` [PI103]?
Eomes expression [1]: reducing; Id2 expression [1]: reducing; Id3 expression [1]: upregulated; Prdm1 expression [1]: reducing

For `NC1(c2ccc(-c3nc4ccn5c(=O)[nH]nc5c4cc3-c3ccccc3)cc2)CCC1` [MK2206], which “H3K27me3 (immunoblot)” value (pEzh2S21 and H3K27me3) is on record?
Its value is “increase”.

And the “pEzh2S21 (immunoblot)” value (pEzh2S21 and H3K27me3)?
Its value is “marked decrease”.

And the “amount of Ezh2 at the promoter regions of Id3, Id2, Eomes and Prdm1 loci” value [2]?
The value was “significantly increased”.

And the “amount of H3K27me3 at the promoter regions of Id3, Id2, Eomes and Prdm1 loci” value [2]?
The value was “significantly increased”.

And the “anti-tumor activity (tumor growth)” value (B16 melanoma)?
The value was “greater anti-tumor activity than untreated Pmel-1 cells, but was less potent than Ezh2S21A-transduced Pmel-1 cells”.

And the Eomes expression [1]?
The Eomes expression was “reducing”.

What about the Id2 expression [1] of the same molecule?
The Id2 expression was “reducing”.

What about the Id3 expression [1] of the same molecule?
The Id3 expression was “upregulated”.

And the Prdm1 expression [1]?
The Prdm1 expression was “reducing”.

Reference: patent publication US12024715B2, “Compositions and methods for improved T cells” (Temple University-Of The Commonwealth System of Higher …, priority 2017, dated 2024)
